Experimental findings from ChEMBL document CHEMBL1201862, “PubChem BioAssay data set” (2004) are described below.

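Exposure lasted 48 hours, with cells grown in 96-well plates and compounds tested at five concentrations. At the GI50, growth is halved.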 Calls of active or inactive are those of the source. Cut-off read from the data, not from the text of the source: active = GI50 up to about 1.1 µM and inactive = higher. Non-standard residues stand in square brackets, D forms with d. Residues, ends and D or L forms follow the SMILES beside them. *: point of attachment. Bn2Val = CC(C)[C@@H](C(=O)*)N(Cc1ccccc1)Cc1ccccc1; NH(4-Cl-benzyl) = Clc1ccc(CN*)cc1; NMeV = CN[C@H](C(=O)O)C(C)C; dNMeA = CN[C@H](C)C(=O)O

Among the test systems are IGROV-1; MCF7; HCT-15; PC-3; SK-MEL-5; SF-539; ACHN; MDA-MB-231; SNB-19; NCI/ADR-RES; NCI-H460; SK-MEL-2; HCT-116; HOP-62; HOP-92; DU-145; OVCAR-3; Malme-3M; SK-OV-3.
Assay in all cases: inhibition of tumour cell growth, NCI panel, 48 h

Consider `CCOC(=O)c1cn(C)c(=S)n2c1nc1ccccc12`, for which the GI50 is 34.3 µM (inactive) with IGROV-1; 44.6 µM (inactive) with MCF7; 91 µM in the test with HCT-15; 48.1 µM (inactive) with PC-3; 86.7 µM (inactive) in the test on SK-MEL-5; > 100 µM (inactive) in the test with SF-539. The GI50 in the test on ACHN was 49.1 µM (inactive); with MDA-MB-231, 91.8 µM (inactive); in the test on SNB-19, 83.8 µM (inactive); in the test on NCI/ADR-RES it was 37.8 µM (inactive); in the test with NCI-H460, 45.6 µM (inactive); in the test on SK-MEL-2, 40.2 µM (inactive). Besides, the GI50 was 54.3 µM (inactive) in the test on HCT-116; > 100 µM (inactive) in the test with HOP-62; 42.8 µM (inactive) with HOP-92; > 100 µM (inactive) in the test with DU-145; > 100 µM (inactive) with OVCAR-3.

As for `CC1CCCC(CC(=O)O)(CC(=O)O)C1` (stereo not given), the GI50 is > 100 µM (inactive) in the test on IGROV-1; > 100 µM (inactive) in the test on MCF7; > 100 µM (inactive) in the test on Malme-3M; > 100 µM in the test on HCT-15; > 100 µM (inactive) in the test on PC-3; > 100 µM (inactive) in the test on SK-MEL-5. In addition, the GI50 in the test with SF-539, in the test on ACHN, with MDA-MB-231, in the test on SNB-19, in the test with NCI/ADR-RES and with NCI-H460 was > 100 µM (inactive) in each case. Besides, the GI50 in the test with SK-MEL-2, in the test with HCT-116 and in the test with HOP-92 was > 100 µM (inactive) throughout.

In the case of `COc1ccc2cc(Oc3ccc(Cl)cc3)c(=O)oc2c1`, the GI50 with IGROV-1 is > 100 µM (inactive); in the test on MCF7, > 100 µM (inactive); with Malme-3M, > 100 µM (inactive); in the test with HCT-15 it was > 100 µM; in the test on PC-3, > 100 µM (inactive); in the test on SK-MEL-5, > 100 µM (inactive). Also, the GI50 in the test with SF-539, in the test on ACHN, in the test with MDA-MB-231, with SNB-19, in the test on NCI-H460 and in the test on HCT-116 was > 100 µM (inactive) each time. Besides, the GI50 is 50.1 µM (inactive) in the test on HOP-62, > 100 µM (inactive) with HOP-92, > 100 µM (inactive) in the test on DU-145 and > 100 µM (inactive) with OVCAR-3.

As to `COc1ccc(-c2cc(-c3ccncc3)nc(N)c2-c2ccc(F)cc2)cc1`, the GI50 with IGROV-1 is 10.6 µM (inactive); with MCF7, 24.3 µM (inactive); with Malme-3M, > 100 µM (inactive); with HCT-15 it was 8.91 µM; in the test with PC-3, 67.1 µM (inactive); in the test on SK-OV-3 it was 95.9 µM (inactive). In addition, the GI50 with SK-MEL-5 was 35.1 µM (inactive); with SF-539, 19.4 µM (inactive); with ACHN, 3.76 µM (inactive); in the test with MDA-MB-231, > 100 µM (inactive); with SNB-19, 41.5 µM (inactive); in the test with NCI/ADR-RES, 24.9 µM (inactive). The GI50 was 15.5 µM (inactive) in the test on NCI-H460; 36 µM (inactive) in the test on SK-MEL-2; 11.9 µM (inactive) in the test on HCT-116; 45.4 µM (inactive) in the test with HOP-62; 83.4 µM (inactive) in the test on HOP-92; 27.9 µM (inactive) in the test with OVCAR-3.

As for `S=C1SC(=N\c2ccccc2)/C(=N/c2ccccc2)N1c1ccc2ccccc2c1`, the GI50 with IGROV-1 is > 100 µM (inactive); in the test on MCF7, > 100 µM (inactive); with Malme-3M, > 100 µM (inactive); with HCT-15 it was 93.3 µM; in the test with PC-3, > 100 µM (inactive); in the test with SK-OV-3, > 100 µM (inactive). In addition, the GI50 was 38.1 µM (inactive) with SK-MEL-5; > 100 µM (inactive) in the test on MDA-MB-231; > 100 µM (inactive) in the test with SNB-19; > 100 µM (inactive) in the test with NCI/ADR-RES; > 10 µM (inactive) with NCI-H460; > 100 µM (inactive) in the test on SK-MEL-2. The GI50 is 12.1 µM (inactive) with HCT-116, > 100 µM (inactive) in the test on HOP-62, > 100 µM (inactive) in the test on DU-145 and > 100 µM (inactive) in the test with OVCAR-3.

As to `COc1cccc2c1OCC1Cc3ccccc3OC21` (stereo not given), the GI50 with IGROV-1 was > 100 µM (inactive); in the test on MCF7, 38.1 µM (inactive); in the test with Malme-3M it was 42.4 µM (inactive); in the test with HCT-15 it was 43 µM; in the test with PC-3, 34.9 µM (inactive); with SK-OV-3, 92.3 µM (inactive). In addition, the GI50 was 14.8 µM (inactive) in the test on SK-MEL-5; 41.6 µM (inactive) in the test on SF-539; 31 µM (inactive) in the test with MDA-MB-231; 33.4 µM (inactive) in the test with NCI/ADR-RES; 35.4 µM (inactive) with SK-MEL-2; 33.6 µM (inactive) in the test on HCT-116. Moreover, the GI50 was 36.2 µM (inactive) in the test on HOP-62, 49.8 µM (inactive) in the test on DU-145 and 26.5 µM (inactive) in the test on OVCAR-3.

Regarding `Cc1cc(-c2c(Br)cc(C(=O)O)n2C)on1`, the GI50 with Malme-3M is > 100 µM (inactive); with HCT-15 it was > 100 µM; in the test on PC-3, > 100 µM (inactive); in the test with SK-OV-3, > 100 µM (inactive); in the test on SK-MEL-5, > 100 µM (inactive); in the test on SF-539 it was > 100 µM (inactive). In addition, the GI50 in the test with ACHN, in the test on MDA-MB-231, in the test with SNB-19, with NCI/ADR-RES, in the test with NCI-H460 and in the test with SK-MEL-2 was > 100 µM (inactive) in each case. Moreover, the GI50 in the test on HCT-116, in the test with HOP-62, in the test on HOP-92, in the test with DU-145 and in the test on OVCAR-3 was > 100 µM (inactive) each time.

Take `O=C1CC(n2ccnc2)c2c(Cl)sc(Cl)c21` (stereo not given): the GI50 with IGROV-1 is 12.7 µM (inactive); in the test with MCF7, 4.94 µM (inactive); with Malme-3M, 17.4 µM (inactive); with HCT-15 it was 14.2 µM; in the test with PC-3 it was 15.7 µM (inactive); in the test on SK-OV-3, 23.1 µM (inactive). Also, the GI50 with SK-MEL-5 was 18.4 µM (inactive); in the test on SF-539 it was 17.2 µM (inactive); in the test with ACHN it was 18.1 µM (inactive); in the test with MDA-MB-231, 18.9 µM (inactive); in the test with SNB-19 it was 20.3 µM (inactive); in the test with NCI/ADR-RES, 23.8 µM (inactive). Moreover, the GI50 was 26 µM (inactive) in the test with NCI-H460; 21.4 µM (inactive) with SK-MEL-2; 14.2 µM (inactive) in the test on HCT-116; 18.7 µM (inactive) with HOP-62; 16.1 µM (inactive) with DU-145; 15.4 µM (inactive) in the test with OVCAR-3.

For `CC(C)[C@H](NC(=O)[C@H](C(C)C)N(Cc1ccccc1)Cc1ccccc1)C(=O)N(C)[C@H](C(=O)N1CCC[C@H]1C(=O)N(C)[C@H](C)C(=O)NCc1ccc(Cl)cc1)C(C)C` (Bn2Val-V[NMeV]P[dNMeA]-{NH(4-Cl-benzyl)}), the GI50 is 2.69 µM (inactive) in the test with IGROV-1; 10.3 µM (inactive) in the test on Malme-3M; 3.13 µM with HCT-15; 2.75 µM (inactive) with PC-3; 16.2 µM (inactive) in the test on SK-OV-3; 3.89 µM (inactive) in the test with SK-MEL-5. Besides, the GI50 with SF-539 was 3.88 µM (inactive); in the test on ACHN, 2.98 µM (inactive); in the test with MDA-MB-231, 2.65 µM (inactive); in the test with SNB-19, 4.24 µM (inactive); in the test with NCI/ADR-RES, 3.32 µM (inactive); in the test with NCI-H460, 3.96 µM (inactive). Further, the GI50 is 1.62 µM (inactive) in the test with SK-MEL-2; 3.02 µM (inactive) in the test on HCT-116; 4.38 µM (inactive) in the test with HOP-62; 2.84 µM (inactive) in the test with HOP-92; 4.11 µM (inactive) in the test on DU-145; 2.76 µM (inactive) in the test with OVCAR-3.

Consider `O=C(c1ccco1)N(C(=O)N1CCC(c2ccccc2)CC1)c1ccccc1`, for which the GI50 in the test on IGROV-1 is 25.9 µM (inactive); in the test with MCF7, 66.5 µM (inactive); in the test on Malme-3M it was > 100 µM (inactive); with HCT-15, 42 µM; with PC-3, 22.3 µM (inactive); in the test on SK-OV-3 it was 81.5 µM (inactive). The GI50 is 21.6 µM (inactive) in the test on SK-MEL-5; 74.5 µM (inactive) in the test with SF-539; > 100 µM (inactive) with ACHN; > 100 µM (inactive) in the test with MDA-MB-231; > 100 µM (inactive) in the test on SNB-19; 23.2 µM (inactive) in the test on NCI/ADR-RES. The GI50 was 42.5 µM (inactive) with SK-MEL-2, 42.7 µM (inactive) in the test with HCT-116, 83 µM (inactive) in the test with DU-145 and 47 µM (inactive) in the test on OVCAR-3.

Consider `O=C(Nc1ccccc1)c1cc(S(=O)(=O)n2ccnc2O)c(S)cc1Cl`, for which the GI50 in the test with IGROV-1 is > 100 µM (inactive); with MCF7, > 100 µM (inactive); in the test with HCT-15 it was > 100 µM; in the test with PC-3, > 100 µM (inactive); in the test with SK-MEL-5, > 100 µM (inactive); in the test on SF-539 it was > 100 µM (inactive). For the same compound, the GI50 in the test with ACHN, in the test on MDA-MB-231, in the test on SNB-19, in the test on NCI/ADR-RES, in the test with NCI-H460 and in the test with SK-MEL-2 was > 100 µM (inactive) in each case. Also, the GI50 in the test with HCT-116, in the test on HOP-62, in the test with HOP-92, with DU-145 and with OVCAR-3 was > 100 µM (inactive) in each case.

As to `CCOC(=O)NC(Nc1cc(Cl)ccc1OC)(C(F)(F)F)C(F)(F)F`, the GI50 was > 100 µM (inactive) in the test with IGROV-1; > 100 µM (inactive) in the test with MCF7; > 100 µM (inactive) in the test with Malme-3M; > 100 µM with HCT-15; > 100 µM (inactive) in the test on SK-OV-3; > 100 µM (inactive) in the test on SK-MEL-5. Moreover, the GI50 in the test with SF-539, with ACHN, in the test with MDA-MB-231, with SNB-19, with NCI-H460 and in the test on SK-MEL-2 was > 100 µM (inactive) in each case. Also, the GI50 in the test with HCT-116, in the test on HOP-62, in the test with HOP-92, with DU-145 and in the test with OVCAR-3 was > 100 µM (inactive) each time.
